Read-outs that look alike come from different tables or passages of the source.
Columns and labels:
Format in all cases: cell-based, human
[1] = system: MDA-MB-231 breast cancer cells; assay: In vitro adhesion assay to ECM proteins, MDA-MB-231; conditions: 16 h pretreatment, mean ± SE of 3 experiments
Procedure: (§1) In vitro adhesion assays were used to evaluate the effects of [VO(SO4)(Me2-Phen)2] on the adhesive properties of U87 and MDA-MD-231 cells as described previously (Narla et al., Clin Cancer Res, 4: 2463-2471, 1998). The plates for the adhesion assays were pre-coated with the extracellular matrix (ECM) proteins laminin, fibronectin, vitronectin and type IV collagen (each at a final concentration of 1 μg/ml in PBS) overnight at 4° C. and dried. Exponentially-growing cells (as described in the previous Example) were incubated with [VO(SO4)(Me2-Phen)2] at concentrations ranging from 0.5 μM to 25 μM for 16 hours in a humidified 5% CO2 atmosphere. The cells were then detached from the flasks with 0.05% trypsin (Life Technologies), resuspended in medium, incubated at 37° C. for 2 hours to allow them to recover from the trypsinization stress and examined for their ability to adhere to the plates precoated with ECM proteins. Cells were centrifuged, washed twice with serum-free medium, counted and resuspended in serum-free medium at a final concentration of 2.5×10^5 cells/ml. The cell suspension was added to each well in aliquots of 100 μl and the cells were allowed to adhere for one hour at 37° C. in a humidified 5% CO2atmosphere. The non-adherent cells were removed by gently washing the cells with PBS. The adherent fraction was quantitated using MTT assays as previously described (Narla, Supra).
(§2) U87 glioblastoma and MDA-MD-231 breast cancer cells were preincubated with various concentrations of [VO(SO4)(Me2-Phen)2] and processed for adhesion assays. [VO(SO4)(Me2-Phen)2] inhibited adhesion of the U87 and MDA-MB-231 cells to extracellular matrix (ECM) proteins, Pretreatment of cells with [VO(SO4)(Me2-Phen)2] inhibited the adhesion of U87 glioblastoma and MDA-MB-231 breast cancer cells to laminin-, fibronectin-, vitronectin- and collagen-coated plates. The inhibition of glioblastoma cell adhesion was concentration-dependent with mean (±SE) IC50 values from 3 independent experiments shown in the table below.

[2] = system: MDA-MB-231 cells; assay: In vitro invasion assay, Matrigel-coated Boyden chambers, MDA-MB-231; conditions: 24 h preincubation, 3 experiments, read-out: Mean IC50 inhibition of invasion through Matrigel matrix
Procedure: Tumor invasion of the basement membrane is a crucial step in the complex multistage process that leads to metastatic spread. Tumor cells cross the basement membrane as they initially invade the lymphatic or vascular beds during dissemination and as they penetrate their target tissues. […]
Invasion of cancer cells treated with [VO(SO4)(Me2-Phen)2] was assayed using Matrigel-coated Costar 24-well transwell cell culture chambers (“Boyden chambers”) with 8.0-μm-pore polycarbonate filter inserts as described previously (Narla et al., Clin Cancer Res, 4: 2463-2471, 1998; Ghosh et al., Anticancer Drug Des, 14: 403-410, 1999; Albini et al., J Cell Biol, 105: 1867-1872, 1987). […] The cells were trypsinized, washed twice with serum-free medium containing BSA, counted and resuspended in a serum-free medium at 1×10^5 cells/ml. […] The invasive cells that migrated to the lower side of the filter were fixed, stained with Hema-3 solution and counted under a light microscope. Five to 10 random fields per filter were counted to determine the invasive fraction. The invasive fractions of cells treated with [VO(SO4)(Me2-Phen)2] were compared to those of DMSO-treated control cells and the percent inhibition of invasiveness was determined. […]

[3] = system: U87 glioblastoma cells; assay: In vitro adhesion assay to ECM proteins, U87; conditions: 16 h pretreatment, mean ± SE of 3 experiments
Procedure: as §1, §2

For `Cc1ccnc2c1ccc1c(C)ccnc12.Cc1ccnc2c1ccc1c(C)ccnc12.O=S(=O)([O-])[O-].[O]=[V+2]` [[VO(SO4)(Me2-Phen)2], bis(4,7-dimethyl-1,10-phenanthroline) sulfatooxovanadium (IV)], the IC50 ([1]; MDA-MB-231, fibronectin-coated plates, read-out: IC50 inhibition of adhesion to fibronectin) was 1000 nM, the IC50 ([1]; MDA-MB-231, laminin-coated plates, read-out: IC50 inhibition of adhesion to laminin) was 1000 ± 100 nM and the IC50 ([1]; MDA-MB-231, type IV collagen-coated plates, read-out: IC50 inhibition of adhesion to collagen) was 1300 nM. It also gave an IC50 ([1]; MDA-MB-231, vitronectin-coated plates, read-out: IC50 inhibition of adhesion to vitronectin) of 1100 ± 100 nM, an IC50 [2] of 600 ± 300 nM and an IC50 ([3]; U87, fibronectin-coated plates, read-out: IC50 inhibition of adhesion to fibronectin) of 1300 nM. For the same compound, the IC50 ([3]; U87, laminin-coated plates, read-out: IC50 inhibition of adhesion to laminin) was 1400 ± 100 nM, the IC50 ([3]; U87, type IV collagen-coated plates, read-out: IC50 inhibition of adhesion to collagen) was 1200 nM and the IC50 ([3]; U87, vitronectin-coated plates, read-out: IC50 inhibition of adhesion to vitronectin) was 1200 ± 100 nM.

— patent US6878388B1, “Vanadium compounds for treating proliferative cell disorders” (Parker Hughes Institute, priority 2000, dated 2005)
